Experiments:
[1] = target: T1, Lanosterol 14-alpha demethylase (Trichophyton rubrum (strain ATCC MYA-4607 / CBS 118892) (Athlete'sfoot fungus)) (UniProt F2SHH3); assay: Inhibition of CYP51 in Trichophyton rubrum assessed as inhibition of microbe growth incubated for 48 hrs by CLSI M27-A3 guideline based method
T1 sequence (whole entry): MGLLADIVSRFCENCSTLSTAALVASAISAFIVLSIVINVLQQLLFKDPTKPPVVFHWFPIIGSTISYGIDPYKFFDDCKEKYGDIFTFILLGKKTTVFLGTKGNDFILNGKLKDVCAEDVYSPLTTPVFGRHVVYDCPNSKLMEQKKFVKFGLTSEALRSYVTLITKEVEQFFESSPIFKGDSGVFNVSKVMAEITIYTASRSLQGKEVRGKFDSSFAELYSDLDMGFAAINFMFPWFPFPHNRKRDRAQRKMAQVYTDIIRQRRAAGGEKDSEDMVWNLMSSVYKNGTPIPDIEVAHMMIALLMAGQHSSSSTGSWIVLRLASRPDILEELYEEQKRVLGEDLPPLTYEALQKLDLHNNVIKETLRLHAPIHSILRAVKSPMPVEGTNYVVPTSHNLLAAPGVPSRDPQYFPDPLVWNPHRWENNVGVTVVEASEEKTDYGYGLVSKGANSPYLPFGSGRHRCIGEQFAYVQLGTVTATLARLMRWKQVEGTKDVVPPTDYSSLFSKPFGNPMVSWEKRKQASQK

[2] = target: Lanosterol 14-alpha demethylase (Candida albicans (strain SC5314 / ATCC MYA-2876) (Yeast), UniProt P10613); assay: Inhibition of CYP51 in Candida albicans assessed as inhibition of microbe growth incubated for 48 hrs by CLSI M27-A3 guideline based method
[3] = target: T2, Steroid 17-alpha-hydroxylase/17,20 lyase (Homo sapiens, UniProt P05093); assay: Inhibition of CYP17 lyase in human hepatocyte microsomes using 17a-hydroxypregnenolone substrate by HPLC/MS/MS method; assay type: ADME
T2 sequence (P05093 whole entry): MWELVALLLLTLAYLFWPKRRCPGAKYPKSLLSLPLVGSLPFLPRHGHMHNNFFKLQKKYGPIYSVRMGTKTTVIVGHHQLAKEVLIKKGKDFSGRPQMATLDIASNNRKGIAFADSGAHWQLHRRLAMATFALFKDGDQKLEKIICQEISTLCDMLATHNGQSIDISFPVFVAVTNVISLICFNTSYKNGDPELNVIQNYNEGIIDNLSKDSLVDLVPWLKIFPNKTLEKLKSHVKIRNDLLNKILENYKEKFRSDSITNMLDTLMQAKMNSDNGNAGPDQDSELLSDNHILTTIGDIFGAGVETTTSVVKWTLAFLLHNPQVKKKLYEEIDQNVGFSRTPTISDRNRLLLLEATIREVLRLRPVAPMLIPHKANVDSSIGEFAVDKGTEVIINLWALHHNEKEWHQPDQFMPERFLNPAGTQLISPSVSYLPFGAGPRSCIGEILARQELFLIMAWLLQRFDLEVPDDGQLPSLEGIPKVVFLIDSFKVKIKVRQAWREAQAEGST

[4] = target: T2, Steroid 17-alpha-hydroxylase/17,20 lyase; assay: Inhibition of CYP17 hydroxylase in human hepatocyte microsomes using pregnenolone substrate by HPLC/MS/MS method; assay type: ADME
[5] = target: T3, Cytochrome P450 11B1, mitochondrial (Homo sapiens, UniProt P15538); assay: Inhibition of CYP11B1 in human hepatocyte microsomes using deoxycortisol substrate by HPLC/MS/MS method; assay type: ADME
T3 sequence (P15538 whole entry): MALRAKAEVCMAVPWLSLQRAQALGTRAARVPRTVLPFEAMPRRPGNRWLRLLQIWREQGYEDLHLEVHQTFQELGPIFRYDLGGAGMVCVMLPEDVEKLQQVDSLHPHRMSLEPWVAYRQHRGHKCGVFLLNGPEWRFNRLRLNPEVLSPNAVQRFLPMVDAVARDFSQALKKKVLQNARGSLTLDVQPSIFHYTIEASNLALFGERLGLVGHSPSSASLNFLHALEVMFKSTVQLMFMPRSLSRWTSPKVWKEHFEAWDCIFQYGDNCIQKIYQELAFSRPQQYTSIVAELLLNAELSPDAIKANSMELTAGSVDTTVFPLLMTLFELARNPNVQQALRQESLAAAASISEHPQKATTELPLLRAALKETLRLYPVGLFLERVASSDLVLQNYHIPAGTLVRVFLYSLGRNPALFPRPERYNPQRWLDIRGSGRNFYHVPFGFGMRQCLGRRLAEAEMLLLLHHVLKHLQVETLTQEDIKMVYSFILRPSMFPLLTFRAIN

Aromatase = target: T4, Aromatase (Homo sapiens, UniProt P11511); assay: Inhibition of CYP19 in human hepatocyte microsomes using testosterone substrate by HPLC/MS/MS method; assay type: ADME
T4 sequence (P11511 whole entry): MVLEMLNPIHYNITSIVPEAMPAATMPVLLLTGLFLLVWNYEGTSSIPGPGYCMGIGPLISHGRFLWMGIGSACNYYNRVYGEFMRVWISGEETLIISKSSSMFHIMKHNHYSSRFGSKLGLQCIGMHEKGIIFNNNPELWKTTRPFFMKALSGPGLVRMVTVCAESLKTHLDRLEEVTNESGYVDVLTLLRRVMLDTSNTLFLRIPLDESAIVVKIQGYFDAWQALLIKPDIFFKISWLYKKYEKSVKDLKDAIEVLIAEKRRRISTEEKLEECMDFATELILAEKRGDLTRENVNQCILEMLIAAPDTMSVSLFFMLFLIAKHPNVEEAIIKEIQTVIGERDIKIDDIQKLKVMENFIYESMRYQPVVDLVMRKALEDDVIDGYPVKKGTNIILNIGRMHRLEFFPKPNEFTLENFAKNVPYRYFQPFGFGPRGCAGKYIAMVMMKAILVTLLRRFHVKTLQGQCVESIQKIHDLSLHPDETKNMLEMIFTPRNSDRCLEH

[6] = target: Lanosterol 14-alpha demethylase (Candida glabrata (strain ATCC 2001 / BCRC 20586 / JCM 3761 / NBRC 0622 /NRRL Y-65 / CBS 138) (Yeast) (Nakaseomyces glabratus)) (UniProt P50859); assay: Inhibition of CYP51 in Candida glabrata assessed as inhibition of microbe growth incubated for 48 hrs by CLSI M27-A3 guideline based method
[7] = target: T5, Lanosterol 14-alpha demethylase (Aspergillus) (UniProt B8NUK6+Q9P8R0+G4WW85); assay: Inhibition of CYP51 in Aspergillus flavus assessed as inhibition of microbe growth incubated for 48 to 168 hrs by CLSI M27-A3 guideline based method
[8] = target: T5, Lanosterol 14-alpha demethylase (Aspergillus); assay: Inhibition of CYP51 in Aspergillus fumigatus assessed as inhibition of microbe growth incubated for 48 to 168 hrs by CLSI M27-A3 guideline based method
Cryptococcus neoformans = assay: Inhibition of CYP51 in Cryptococcus neoformans assessed as inhibition of microbe growth incubated for 48 hrs by CLSI M27-A3 guideline based method
[9] = target: T6, Cytochrome P450 11B2, mitochondrial (Homo sapiens, UniProt P19099); assay: Inhibition of CYP11B2 in human hepatocyte microsomes using deoxycorticosteroid substrate by HPLC/MS/MS method; assay type: ADME
T6 sequence (P19099 whole entry): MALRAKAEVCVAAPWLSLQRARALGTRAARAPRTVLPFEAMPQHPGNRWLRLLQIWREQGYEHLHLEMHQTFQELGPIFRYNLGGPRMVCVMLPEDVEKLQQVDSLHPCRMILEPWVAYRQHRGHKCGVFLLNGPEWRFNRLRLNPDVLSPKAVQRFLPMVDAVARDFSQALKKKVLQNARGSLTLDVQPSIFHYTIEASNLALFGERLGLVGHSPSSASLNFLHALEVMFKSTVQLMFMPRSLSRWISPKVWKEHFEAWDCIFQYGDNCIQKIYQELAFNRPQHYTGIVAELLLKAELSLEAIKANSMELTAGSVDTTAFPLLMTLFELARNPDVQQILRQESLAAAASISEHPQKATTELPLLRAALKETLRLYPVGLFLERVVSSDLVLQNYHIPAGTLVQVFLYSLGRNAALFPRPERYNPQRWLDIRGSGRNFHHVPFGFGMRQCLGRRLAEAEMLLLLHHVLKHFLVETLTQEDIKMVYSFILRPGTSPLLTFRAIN

Sequence of Lanosterol 14-alpha demethylase (Candida glabrata (strain ATCC 2001 / BCRC 20586 / JCM 3761 / NBRC 0622 /NRRL Y-65 / CBS 138) (Yeast) (Nakaseomyces glabratus)) (P50859 whole entry): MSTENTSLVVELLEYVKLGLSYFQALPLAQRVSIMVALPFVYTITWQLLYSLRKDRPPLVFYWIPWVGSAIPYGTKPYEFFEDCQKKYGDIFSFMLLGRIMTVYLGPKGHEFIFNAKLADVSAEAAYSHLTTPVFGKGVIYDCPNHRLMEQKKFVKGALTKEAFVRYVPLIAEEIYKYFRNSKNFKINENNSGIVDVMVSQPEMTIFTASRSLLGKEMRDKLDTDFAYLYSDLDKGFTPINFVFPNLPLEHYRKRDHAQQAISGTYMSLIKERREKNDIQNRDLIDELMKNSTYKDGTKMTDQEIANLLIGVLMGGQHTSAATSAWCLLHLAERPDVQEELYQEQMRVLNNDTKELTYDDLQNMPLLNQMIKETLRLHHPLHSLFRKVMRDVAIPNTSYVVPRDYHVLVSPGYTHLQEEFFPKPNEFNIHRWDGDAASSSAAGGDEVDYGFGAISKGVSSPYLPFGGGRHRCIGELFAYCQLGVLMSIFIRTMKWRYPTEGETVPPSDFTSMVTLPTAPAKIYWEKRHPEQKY
Sequence of Lanosterol 14-alpha demethylase (P10613 whole entry): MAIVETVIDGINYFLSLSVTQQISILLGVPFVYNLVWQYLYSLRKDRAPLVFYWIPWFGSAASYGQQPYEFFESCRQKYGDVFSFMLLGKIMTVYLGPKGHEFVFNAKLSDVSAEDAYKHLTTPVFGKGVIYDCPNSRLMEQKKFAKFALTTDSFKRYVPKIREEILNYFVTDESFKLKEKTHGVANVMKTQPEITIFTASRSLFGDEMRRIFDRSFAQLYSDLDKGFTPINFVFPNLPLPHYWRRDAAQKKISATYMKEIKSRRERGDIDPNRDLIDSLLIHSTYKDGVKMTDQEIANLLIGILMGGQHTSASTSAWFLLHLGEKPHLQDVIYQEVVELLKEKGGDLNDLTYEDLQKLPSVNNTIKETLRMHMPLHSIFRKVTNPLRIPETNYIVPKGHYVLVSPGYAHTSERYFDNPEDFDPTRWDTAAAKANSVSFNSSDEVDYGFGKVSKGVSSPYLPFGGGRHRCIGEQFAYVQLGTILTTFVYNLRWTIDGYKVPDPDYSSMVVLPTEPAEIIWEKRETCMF

Compound	MIC50 [1] [µg/mL]	MIC50 [2] [µg/mL]	IC50 [3] [µM]	IC50 [4] [µM]	IC50 [5] [µM]	IC50 (Aromatase) [µM]	MIC50 [6] [µg/mL]	MIC100 [7] [µg/mL]	MIC100 [8] [µg/mL]	MIC50 (Cryptococcus neoformans) [µg/mL]	IC50 [9] [µM]
CC[C@@H]([C@H](C)O)n1ncn(-c2ccc(N3CCN(c4ccc(OC[C@@H]5CO[C@@](Cn6cncn6)(c6ccc(F)cc6F)C5)cc4)CC3)cc2)c1=O [POSACONAZOLE]	0.25	0.015	0.042	1.8	0.31	8.4	0.12	0.25	0.062	0.0078	0.021
OC(Cn1cncn1)(Cn1cncn1)c1ccc(F)cc1F [FLUCONAZOLE]	16	0.5	> 200	> 200	30	22	8	> 64	> 64	0.25	13

From ChEMBL document CHEMBL4052712, “Design and optimization of highly-selective, broad spectrum fungal CYP51 inhibitors” (Bioorg Med Chem Lett, 2017)
